The values below come from PMC12393501, “Recruitment of Mre11 to recombination sites during meiosis” (Research Square, 2025).

Assay [1] relates to vegetative yeast cells expressing myc-tagged Mre11. As to the kind of experiment: Immunofluorescence of MMS-induced Mre11-myc foci, vegetative nuclear spreads. Format: cell-based, Saccharomyces cerevisiae. Particulars: 5% 1,6-hexanediol, 4–5 minutes, vegetative spheroplasts. As to the method:
(§1) Following standard protocols, strains were patched on YPG plates, mated and streaked on YPD plates, and selected diploid colonies grown in liquid YPD at 30°C, 250 rpm, overnight. For meiotic synchronization, diploid cultures grown overnight in YPD were transferred to YPA (1% yeast extract, 2% peptone, 1% potassium acetate) at OD600 0.2 and grown for 12–14 hours at 30°C, 250 rpm. […]
(§2) Slides were blocked with 90% FBS, 1× PBS for 1 hour at room temperature in a humid chamber and then incubated with primary antibody (mouse mAb anti-myc, 1:200 (2276S, Cell Signaling Technology), rabbit anti-phospho H2A-S129, 1:200 (ab15083, abcam)) diluted in 3% BSA, 1× PBS in a humid chamber for 2 hours at 37°C or overnight at 4°C. Slides were washed three times with 1× PBS in a Coplin jar, were incubated with secondary antibody (goat anti-mouse IgG Alexa Fluor™ Plus 488, 1:200 (A32723, Invitrogen), donkey anti-rabbit IgG Alexa Fluor™ 546, 1:200 (A10040, Invitrogen) diluted in 3% BSA, 1× PBS in a humid chamber at 37°C for 1 hour. Slides were washed in the dark three times for 5 mins with 1× PBS, mounted with Vectashield containing DAPI (Vector Labs). Images were captured on a Zeiss Axio Observer with a 100×/1.4 NA oil immersion objective and were analyzed in ImageJ.

Assay [2] relates to meiotic yeast cells expressing myc-tagged Mre11. Briefly: Immunofluorescence of Mre11-myc foci, meiotic nuclear spreads. Format: cell-based, Saccharomyces cerevisiae. Particulars: 5% 1,6-hexanediol, brief exposure, 4 hours after transfer to SPM. As to the method: as §1, §2
Another assay has as its system mre11-ΔC49 mutant. As to the kind of experiment: MMS and CPT sensitivity assay, mre11-ΔC49. Format: cell-based, Saccharomyces cerevisiae. The conditions noted are these: ten-fold serial dilutions on YPD plates, two days at 30°C. As to the method: (§3) Following standard protocols, strains were patched on YPG plates, mated and streaked on YPD plates, and selected diploid colonies grown in liquid YPD at 30°C, 250 rpm, overnight. For meiotic synchronization, diploid cultures grown overnight in YPD were transferred to YPA (1% yeast extract, 2% peptone, 1% potassium acetate) at OD600 0.2 and grown for 12–14 hours at 30°C, 250 rpm. Once the cultures reached OD600 between 1.2–1.6, cells were washed once with prewarmed sterile water and immediately transferred to sporulation medium supplemented with amino acids (320 μL amino acid complementation media for 100 mL of sporulation media (SPM)) and were kept shaking at 30°C, 250 rpm during the entire meiotic time-course. For MMS and CPT (Sigma) sensitivity assays, serial dilutions of overnight cultures were spotted on freshly prepared YPD-MMS or YPD-CPT plates containing indicated percentage of MMS or CPT, respectively. Plates were grown for two days at 30°C. For immunofluorescence of vegetatively growing cells, overnight cultures were refreshed by diluting to OD600 0.2 and grown for 3–4 hours to reach OD600 1.2–1.4 before subjecting to MMS or MMS followed by 5% 1,6-hexanediol treatment. For 5% 1,6-hexanediol treatment, cells were first converted to spheroplasts and then treated with 5% 1,6-hexanediol for 4–5 minutes. […]

In another assay the test system is mre11-ΔIDR mutants. As to the kind of experiment: MMS and CPT sensitivity assay, mre11-ΔIDR. In kind it is cell-based, Saccharomyces cerevisiae. The conditions noted are these: ten-fold serial dilutions on YPD plates, two days at 30°C. As to the method: as §3
Assay [3] relates to Mer2. As to the kind of experiment: Colocalization of Mre11 with Mer2 condensates in vitro. In kind it is binding, Saccharomyces cerevisiae. As to the method:
Proteins were diluted to a 10× stock of their appropriate working concentrations in their respective storage buffers. […] Unless specified otherwise, all reactions contained 400 nM ^Alexa488Mre11 or 100 nM ^eGFPMRX. A typical 20 μL binding reaction contained 2 μL protein of 10× stock of indicated concentration, 10 μL of 2× reaction buffer, and 150 ng of supercoiled pUC19 (5.7 nM). Typical reactions were assembled at 30°C for 30 mins with gentle mixing every 5 mins, unless mentioned otherwise. 5 μL was dropped onto a microscope slide and covered with a coverslip. All images were captured on a Zeiss Axio Observer with a 100×/1.4 NA oil immersion objective except for images provided in Figure 4G which were captured on Leica Stellaris DMI 8 confocal microscope with a 63x/1.2 NA water immersion objective. Images were analyzed with ImageJ using a custom-made script. In brief, 129.24 × 129.24-μm (2048 × 2048-pixel) images were thresholded to mean intensity of the background plus three times the standard deviation of the background. Masked foci were counted and the intensity inside the focus mask was integrated. Data points represent averages of at least 8–10 images per sample. Data were analyzed using Graphpad Prism 10.4.0.

Assay [4] concerns pUC19 plasmid DNA. Briefly: In vitro condensation assay, MRX complex. As to the method:
(§4) Proteins were diluted to a 10× stock of their appropriate working concentrations in their respective storage buffers. Reactions were performed in a buffer containing 25 mM HEPES-HCl (pH 7.5), 2 mM DTT, 1 mg/ml BSA, 5% glycerol, 5 mM MgCl2, 5% PEG-3350, and NaCl. Considering the salt contributed by the protein dilution buffer, final concentration of NaCl in a reaction was adjusted to 120 mM. Unless specified otherwise, all reactions contained 400 nM ^Alexa488Mre11 or 100 nM ^eGFPMRX. A typical 20 μL binding reaction contained 2 μL protein of 10× stock of indicated concentration, 10 μL of 2× reaction buffer, and 150 ng of supercoiled pUC19 (5.7 nM). Typical reactions were assembled at 30°C for 30 mins with gentle mixing every 5 mins, unless mentioned otherwise. 5 μL was dropped onto a microscope slide and covered with a coverslip. All images were captured on a Zeiss Axio Observer with a 100×/1.4 NA oil immersion objective except for images provided in Figure 4G which were captured on Leica Stellaris DMI 8 confocal microscope with a 63x/1.2 NA water immersion objective. Images were analyzed with ImageJ using a custom-made script. In brief, 129.24 × 129.24-μm (2048 × 2048-pixel) images were thresholded to mean intensity of the background plus three times the standard deviation of the background. Masked foci were counted and the intensity inside the focus mask was integrated. Data points represent averages of at least 8–10 images per sample. Data were analyzed using Graphpad Prism 10.4.0.

In assay [5] the test system is pUC19 plasmid DNA. Briefly: In vitro condensation assay, Mre11. The conditions noted are these: for Condensate formation: in the presence of plasmid DNA (pUC19), pH 7.5, 120 mM NaCl, 30°C, fluorescence microscopy. As to the method: as §4
In another assay the test system is pUC19 plasmid. As to the kind of experiment: Gel shift assay DNA binding. Particulars: 1 nM pUC19, pH 7.5, 100 mM NaCl, 5 mM EDTA, 30°C for 30 mins. As to the method: Proteins were diluted to their appropriate working concentrations in their respective storage buffers. […] Reactions were assembled at 30°C for 30 mins and resolved in a 1% agarose (SeaKem LE Agarose, Lonza) at 60 V for 120 mins at 4°C. Gels were stained with SYBR Gold Nucleic Acid Gel Stain (S11497, Invitrogen) for 40 mins and visualized with Amersham Typhoon biomolecular imager (Cytiva).

The test system of assay [6] is Mer2. As to the kind of experiment: Yeast two-hybrid Mer2-Mre11 interaction. Format: binding, Saccharomyces cerevisiae. Particulars: SC-Leu-Ura-His + 25 mM 3-AT, 4–5 days at 30°C; at least four independent transformants. As to the method:
Bait and prey plasmids were co-transformed into yWL365 using the standard ‘LiAc’-based transformation and plated on SC-Leu-Ura selective media. At least four independent transformants were tested for Mer2-Mre11 interaction by spotting a dilution series on SC-Leu- Ura-His + 25 mM 3-AT (3-amino-1,2,4-triazole) and growing for 4–5 days at 30°C.

Ends that are not written are not given here.

With `OCCCCCCO` [1,6-hexanediol], the “Effect on MMS-induced Mre11 foci” value in assay [1] is reported as “readily dissolved MMS-induced foci, which instead coalesced into a few aggregates of high intensity”. Moreover, the “Effect on meiotic Mre11 foci” value in assay [2] was “disassembles these foci”.

For the molecule `CC[C@@]1(O)C(=O)OCc2c1cc1n(c2=O)Cc2cc3ccccc3nc2-1` [CPT, camptothecin], in the assay with mre11-ΔC49 mutant, the “Sensitivity of mre11-ΔC49 mutant to treatment” value was “resistant”. For the same molecule, the “Sensitivity of mre11-ΔIDR mutants relative to wild type” value in the assay on mre11-ΔIDR mutants is recorded as “as resistant to MMS or CPT as wild-type cells”.

`COS(C)(=O)=O` [MMS, methylmethanesulfonate]: the “Sensitivity of mre11-ΔC49 mutant to treatment” value with mre11-ΔC49 mutant is “resistant”. Besides, the “Sensitivity of mre11-ΔIDR mutants relative to wild type” value in the assay on mre11-ΔIDR mutants is listed as “as resistant to MMS or CPT as wild-type cells”.

On to “C-terminus of Mre11: mScarlet-labelled Mre11-C49 (SYGLLNGRKTKTKTRPAASTKTASRRGKGRASRTPKTDILGSLLAKKRK; also: mScarlet tag; UniProt P32829 644-692, looked up, fragment)”, for which the “Condensate formation of the C-terminus without Mer2” value in the assay with Mer2 [3] (800 nM mScarlet-Mre11-C49, control lacking eGFP-Mer2) is recorded as “does not form condensates independently”. Moreover, the “Localization in the presence of Mer2 condensates” value with Mer2 [3] (800 nM mScarlet-Mre11-C49 and 200 nM eGFP-Mer2, 30 minutes) is recorded as “forms a halo-like structure around Mer2 condensates”.

In the case of “MRX: Mre11-Rad50-Xrs2 complex with an eGFP tag at the N-terminus of Mre11”, the “Effect of crowding agents on condensation” value in the assay with pUC19 plasmid DNA [4] (5% PEG-3350) is “promoted”. The “Role of the Mre11 C-terminal extremity in focus formation of MRX” value with pUC19 plasmid DNA [4] (eGFP-tagged MRX, ΔC49) is “required for efficient focus formation”. The Condensate formation result in the assay with pUC19 plasmid DNA [4] (in the presence of plasmid DNA (pUC19), pH 7.5, 120 mM NaCl, 30°C, fluorescence microscopy) is on record as “form large clusters visible by fluorescence microscopy”.

Consider “Mre11: Alexa488-labeled or eGFP-tagged budding yeast Mre11 nuclease”, for which, in the assay with pUC19 plasmid DNA [5] (5% PEG-3350), the “Effect of crowding agents on condensation” value was “promoted”. In addition, in the assay on pUC19 plasmid DNA [5] (divalent metal ions), the “Effect of divalent metal ions on condensation” value is on record as “enhanced”. For the same molecule, in the assay with pUC19 plasmid DNA [5], the Condensate formation result is “form large clusters visible by fluorescence microscopy”. Also, the “Concentration above which foci intensity increases steeply” value in the assay with pUC19 plasmid DNA [5] (protein titration, pUC19 DNA) was “above 200 nM”. In the assay with pUC19 plasmid, the “Species of reduced electrophoretic mobility at higher protein concentration” value was “formed complexes of reduced mobility at higher protein concentration”. In the assay on Mer2 [3] (200 nM Alexa594-Mer2 and eGFP-Mre11 assembled separately 10 minutes, then mixed 1:1 for 30 minutes), the “Colocalization with Mer2” value was “nearly absolute colocalization”.

B1: truncation of the terminal 15 amino acids of Mre11: Mre11 lacking the terminal 15 amino acids (pGAD-C1-Mre11-ΔC15) (protein)
chain: MDYPDPDTIRILITTDNHVGYNENDPITGDDSWKTFHEVMMLAKNNNVDMVVQSGDLFHVNKPSKKSLYQVLKTLRLCCMGDKPCELELLSDPSQVFHYDEFTNVNYEDPNFNISIPVFGISGNHDDASGDSLLCPMDILHATGLINHFGKVIESDKIKVVPLLFQKGSTKLALYGLAAVRDERLFRTFKDGGVTFEVPTMREGEWFNLMCVHQNHTGHTNTAFLPEQFLPDFLDMVIWGHEHECIPNLVHNPIKNFDVLQPGSSVATSLCEAEAQPKYVFILDIKYGEAPKMTPIPLETIRTFKMKSISLQDVPHLRPHDKDATSKYLIEQVEEMIRDANEETKQKLADDGEGDMVAELPKPLIRLRVDYSAPSNTQSPIDYQVENPRRFSNRFVGRVANGNNVVQFYKKRSPVTRSKKSGINGTSISDRDVEKLFSESGGELEVQTLVNDLLNKMQLSLLPEVGLNEAVKKFVDKDEKTALKEFISHEISNEVGILSTNEEFLRTDDAEEMKALIKQVKRANSVRPTPPKENDETNFAFNGNGLDSFRSSNREVRTGSPDITQSHVDNESRITHISQAESSKPTSKPKRVRTATKKKIPAFSDSTVISDAENELGDNNDAQDDVDIDENDIIMVSTDEEDASYGLLNGRKTKTKTRPAASTKTASRRGKGRASRT
modifications: left off: Gal4 activation domain (from the vector pGAD-C1), end not stated, kept
As to B1, the “Interaction with Mer2 (yeast two-hybrid)” value in the assay with Mer2 [6] was “abolished the interaction with Mer2”.

B2: Mre11^IDR: purified eGFP-tagged Mre11 IDR alone (protein, UniProt P32829 524-677, looked up, fragment)
chain: NSVRPTPPKENDETNFAFNGNGLDSFRSSNREVRTGSPDITQSHVDNESRITHISQAESSKPTSKPKRVRTATKKKIPAFSDSTVISDAENELGDNNDAQDDVDIDENDIIMVSTDEEDASYGLLNGRKTKTKTRPAASTKTASRRGKGRASRT
modifications: IDR eGFP tag
notes: purified eGFP-tagged Mre11 IDR alone
In the case of B2, in the assay on pUC19 plasmid DNA [5], the Condensate formation entry was “failed to form condensates”. Further, the “DNA binding compared to the WT or Mre11-ΔIDR” value in the assay on pUC19 plasmid was “reduced DNA binding”.
